Where two headings read alike, the source gives them in different places.
Assays:
Type in all cases: cell-based, human
HTT [1] = assay: HiBiT protein abundance assay, HTT; details: modified K562 cells
Summary of the method: (§1)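 HiBiT-tagged endogenous targets in K562 cells treated 24 h at 37° C. with 10-point 3-fold dilutions (top 10 μM, DMSO ≤0.25%). Luminescence read after lytic LgBiT detection; response normalised to unmodified-cell and DMSO controls, IC50 interpolated at 50% from four-parameter logistic fit.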

Target C [2] = assay: Splicing RT-qPCR panel, Target C canonical junction (CJ) mRNA; details: read-out: Target C IC50 (decrease in CJ mRNA levels)
Summary of the method: (§2)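 Splicing switch read by one-step RT-qPCR of canonical and alternative exon junctions, housekeeper-normalized (GAPDH/GUSB/PPIA), 2^(−ΔΔCt) vs DMSO as percent response. Cells (A673 or K562) dosed 24 h, 11 points 3-fold from 10 uM, DMSO ≤0.25%.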

MYB [3] = assay: HiBiT protein abundance assay, MYB; details: modified K562 cells
Summary of the method: as §1

SMN2 = assay: Splicing RT-qPCR panel, SMN2 canonical junction (CJ) mRNA; details: read-out: SMN2 IC50 (decrease in CJ mRNA levels)
Summary of the method: as §2

MYB [4] = assay: Splicing RT-qPCR assay, MYB mRNA canonical junction (CJ) and alternative junction (AJ); details: for AC50: increase in AJ mRNA
Summary of the method: as §2

Target C [5] = assay: HiBiT protein abundance assay, Target C; details: modified K562 cells
Summary of the method: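 HiBiT knock-in K562-derived cells seeded at 10000/well and treated with 10-point 3-fold dilutions (top final 10 μM, ≤0.25% DMSO) for 24 h at 37 °C. Lytic HiBiT luminescence normalised to unmodified-cell and DMSO controls; IC50 from 4-parameter fit at 50% abundance.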

HTT [6] = assay: Splicing RT-qPCR assay, HTT mRNA canonical junction (CJ) and alternative junction (AJ); details: for AC50: increase in AJ mRNA
Summary of the method: as §2

[7] = Homo sapiens, K562, 24 h, Table 13A
[8] = Homo sapiens, RT-qPCR panel, canonical junction mRNA, compound concentration having 50% response in CJ decrease
[9] = Homo sapiens, 24 h, decrease in CJ mRNA, A673 or K562 cells, 24 hours treatment, RT-qPCR, read-out: MYB CJ IC50
[10] = Homo sapiens, 24 h, A673 or K562 cells, 24 hours treatment, RT-qPCR
[11] = Homo sapiens, RT-qPCR panel, canonical junction mRNA, compound concentration having 50% response in CJ decrease, read-out: MYB IC50 (decrease in CJ mRNA levels)
[12] = Homo sapiens, 24 h, decrease in CJ mRNA, A673 or K562 cells, 24 hours treatment, RT-qPCR, read-out: HTT CJ IC50
[13] = Homo sapiens, RT-qPCR panel, canonical junction mRNA, compound concentration having 50% response in CJ decrease, read-out: HTT IC50 (decrease in CJ mRNA levels)
[14] = Homo sapiens, K562, 24 h, Table 13B
[15] = Homo sapiens, gene panel, CJ qPCR, protocol of Example 142
[16] = Homo sapiens, gene panel, CJ qPCR, protocol of Example 142, read-out: MYB IC50 (decrease in CJ mRNA levels)
[17] = Homo sapiens, gene panel, CJ qPCR, protocol of Example 142, read-out: HTT IC50 (decrease in CJ mRNA levels)
[18] = RT-qPCR panel, canonical junction mRNA, compound concentration having 50% response in CJ decrease

SMILES | IC50 (HTT [1]; [14]) | IC50 (Target C [2]; [15]) | IC50 (MYB [3]; [14]) | IC50 (SMN2; [15]) | IC50 (MYB [4]; [16]) | IC50 (Target C [5]; [14]) | IC50 (HTT [6]; [17]) | IC50 (HTT [1]; [7]) | IC50 (Target C [2]; [8]) | IC50 (MYB [3]; [7]) | IC50 (SMN2; [8]) | IC50 (MYB [4]; [9]) | AC50 (MYB [4]; [10]) | IC50 (MYB [4]; [11]) | IC50 (Target C [5]; [7]) | IC50 (HTT [6]; [12]) | AC50 (HTT [6]; [10]) | IC50 (HTT [6]; [13]) | also measured
Cc1[nH]ncc1-c1ccc(-c2ccc(N(C)C3CC(C)(C)NC(C)(C)C3)nn2)c2ncsc12 [Compound 176] | – | – | – | – | – | – | – | 1000 to 10000 nM | > 10 µM | 1 to 10 µM | > 10000 nM | > 10 µM | > 10000 nM | > 10 µM | 1 to 10 µM | > 10 µM | > 10000 nM | > 10 µM | –
COc1nc(-c2ccc(O[C@@H]3C[C@H]4CC[C@@H](C3)N4)nn2)ccc1-c1cn(C)nn1 [Compound 943] | 1000 to 10000 nM | > 10 µM | 1 to 10 µM | > 10000 nM | > 10 µM | > 10 µM | 1 to 10 µM | – | – | – | – | – | – | – | – | – | – | – | –
CN(c1ccc(-c2ccc(-c3cnn(C)c3)c3cn[nH]c23)nn1)C1CC(C)(C)NC(C)(C)C1 [Compound 243] | – | – | – | – | – | – | – | 1000 to 10000 nM | > 10 µM | 1 to 10 µM | 100 to 1000 nM | 1 to 10 µM | 1000 to 10000 nM | 1 to 10 µM | > 10 µM | 1 to 10 µM | 1000 to 10000 nM | 1 to 10 µM | –
CNC1CCN(c2ncc(-c3ccc(-n4cccn4)c4[nH]ncc34)nn2)C1 (stereo not shown) [Compound 549] | – | – | – | – | – | – | – | – | – | – | – | – | – | – | – | – | – | – | IC50 (HTT [1]; Table 13A, 24 hours): 1000 to 10000 nM; IC50 (Target C [2]; [18]): > 10 µM; IC50 (MYB [3]; Table 13A, 24 hours): 1 to 10 µM; IC50 (SMN2; [18]): 1000 to 10000 nM; IC50 (MYB [4]; RT-qPCR panel, canonical junction mRNA, compound concentration having 50% response in CJ decrease, read-out: MYB IC50 (decrease in CJ mRNA levels)): 1 to 10 µM; IC50 (Target C [5]; Table 13A, 24 hours): 1 to 10 µM; IC50 (HTT [6]; RT-qPCR panel, canonical junction mRNA, compound concentration having 50% response in CJ decrease, read-out: HTT IC50 (decrease in CJ mRNA levels)): 1 to 10 µM
CN(c1ccc(-c2ccc(-c3cnc(=O)[nH]c3)c3scnc23)nn1)C1CC(C)(C)NC(C)(C)C1 [Compound 179] | – | – | – | – | – | – | – | 100 to 1000 nM | 0.1 to 1 µM | 0.1 to 1 µM | 100 to 1000 nM | 0.1 to 1 µM | 100 to 1000 nM | 0.1 to 1 µM | 0.1 to 1 µM | 0.1 to 1 µM | 100 to 1000 nM | 0.1 to 1 µM | –
c1n[nH]cc1-c1ccc(-c2ccc(N3C[C@H]4CNC[C@H]4C3)nn2)c2[nH]ncc12 [Compound 254] | – | – | – | – | – | – | – | > 10000 nM | > 10 µM | > 10 µM | 100 to 1000 nM | > 10 µM | 1000 to 10000 nM | > 10 µM | > 10 µM | > 10 µM | > 10000 nM | > 10 µM | –
c1nc2c(-c3cn[nH]c3)ccc(-c3ccc(N4CCNC(C5CC5)C4)nn3)c2s1 (stereo not shown) [Compound 417] | – | – | – | – | – | – | – | 100 to 1000 nM | > 10 µM | > 10 µM | 100 to 1000 nM | 1 to 10 µM | 1000 to 10000 nM | 1 to 10 µM | 1 to 10 µM | 1 to 10 µM | > 10000 nM | 1 to 10 µM | –
Cn1cc(-c2ccc(-c3ccc(OC4CC(C)(C)NC(C)(C)C4)nn3)c3[nH]ncc23)cn1 [Compound 232] | – | – | – | – | – | – | – | 100 to 1000 nM | 1 to 10 µM | 1 to 10 µM | 100 to 1000 nM | 1 to 10 µM | 100 to 1000 nM | 1 to 10 µM | 1 to 10 µM | 1 to 10 µM | 100 to 1000 nM | 1 to 10 µM | –

The next lines start with results.

IC50 (HTT [1]; [14]) | IC50 (Target C [2]; [15]) | IC50 (MYB [3]; [14]) | IC50 (SMN2; [15]) | IC50 (MYB [4]; [16]) | IC50 (Target C [5]; [14]) | IC50 (HTT [6]; [17]) | SMILES | IC50 (HTT [1]; [7]) | IC50 (Target C [2]; [8]) | IC50 (MYB [3]; [7]) | IC50 (SMN2; [8]) | IC50 (MYB [4]; [9]) | AC50 (MYB [4]; [10]) | IC50 (MYB [4]; [11]) | IC50 (Target C [5]; [7]) | IC50 (HTT [6]; [12]) | AC50 (HTT [6]; [10]) | IC50 (HTT [6]; [13]) | also measured
1000 to 10000 nM | > 10 µM | 1 to 10 µM | 1000 to 10000 nM | > 10 µM | 1 to 10 µM | > 10 µM | COc1nc(-c2ccc(NC3CCNCC3)nn2)ccc1-c1cnn(C)n1 [Compound 933] | – | – | – | – | – | – | – | – | – | – | – | –
1000 to 10000 nM | 1 to 10 µM | 1 to 10 µM | 100 to 1000 nM | 1 to 10 µM | > 10 µM | 1 to 10 µM | COc1nc(-c2ccc(OC3CC(C)(C)NC(C)(C)C3)nn2)cnc1-c1cn[nH]c1 [Compound 999] | – | – | – | – | – | – | – | – | – | – | – | –
